The text below walks through data of patent US20090004185A1, “AMINO-SUBSTITUTED QUINAZOLINE DERIVATIVES AS INHIBITORS OF BETA-CATENIN/TCF-4 PATHWAY AND CANCER TREATMENT AGENTS” (WYETH, priority 2007, published 2009).

One experiment concerns β-catenin/Tcf-4. Nature of the experiment: cells. Particulars: 24 hours of incubation with compound, ratio Firefly/Renilla luciferase. It counts as cell-based. Summed up:
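SW480-derived lines with integrated reporters (Tcf-4-driven firefly luciferase; SV40 firefly as specificity control; SV40 Renilla for cell number/toxicity), treated 24 hours with titrated compounds, final 0.316% DMSO. Dual-luciferase read-out; firefly/Renilla ratio as % of control, duplicate plates, IC50 (nM) from curve fit.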

The test system of the next experiment is SV40-Luc. Nature of the experiment: SV40-Luc control luciferase reporter assay, SV 5A8 cell line (SV40-Luc and SV40-R-Luc), control for non-specific inhibitors. It counts as cell-based, human. Particulars: SV 5A8 cells derived from SW480, 24 hours of incubation with compound, ratio Firefly/Renilla luciferase. Summed up: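 Compound exposure lasted 24 h, starting 20-24 h after seeding 1×10^4 cells/well, with titrated doses and 0.316% final DMSO. Readout was dual firefly/Renilla luminescence; Renilla under an SV40 promoter corrects for cell number and toxicity, and SV 5A8 (SV40 firefly) flags non-specific inhibitors versus Tcf-4-driven lines 33.13 and 22C11. IC50s came from the F/R ratio (% of control).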

Setting [1] is: Homo sapiens, SW480, 24 h, Tcf 33.13 cells derived from SW480.
Where [2] appears, read: Homo sapiens, Tcf22C11, 24 h, Tcf 22C11 cells derived from SW480.
Where [3] appears, read: Tcf 22C11 cells derived from SW480.
Setting [4] is: Tcf 33.13 cells derived from SW480.

For the compound `COc1ccc(CN2CCC(C(=O)Nc3ccc(CNc4nc(N(C)C)nc5cc(C)ccc45)cc3)CC2)cc1` [Example 250, N-[4-({[2-(dimethylamino)-7-methylquinazolin-4-yl]amino}methyl)phenyl]-1-(4-methoxybenzyl)piperidine-4-carboxamide], the half-maximal inhibitory concentration (IC50) (in general, the point on the concentration scale where inhibition reaches its midpoint) in the experiment with β-catenin/Tcf-4 (setting [1]) was 213 nM; in the experiment with β-catenin/Tcf-4 (setting [2]), 373 nM; in the experiment with SV40-Luc (Homo sapiens, SV5A8, 24 h), more than 9280 nM.
As to `CCN(CC)c1nc(NCc2ccc(NC(=O)c3ccc(F)cc3)cc2)c2ccccc2n1` [Example 122, N-[4-({[2-(diethylamino)quinazolin-4-yl]amino}methyl)phenyl]-4-fluorobenzamide], the concentration for half-maximal inhibition (IC50) is 1260 nM in the experiment with β-catenin/Tcf-4 (setting [1]); 2290 nM in the experiment on β-catenin/Tcf-4 (setting [2]); more than 11300 nM with SV40-Luc (Homo sapiens, SV5A8, 24 h).
With `Cc1ccc2c(NCc3ccc(NC(=O)c4ccc(C)nc4)cc3)nc(N(C)C)nc2c1` [Example 241, N-[4-({[2-(dimethylamino)-7-methylquinazolin-4-yl]amino}methyl)phenyl]-6-methylnicotinamide], the IC50 in the experiment with β-catenin/Tcf-4 (setting [1]) is 813 nM; in the experiment with β-catenin/Tcf-4 (setting [2]) it was 1030 nM; in the experiment with SV40-Luc (Homo sapiens, SV5A8, 24 h), more than 23400 nM.
The like results for `COC[C@@H]1CCCN1c1nc(NCc2ccc(NC(=O)c3ccc(F)cc3)cc2)c2ccc(C)cc2n1` [Example 205, 4-fluoro-N-{4-[({2-[(2S)-2-(methoxymethyl)pyrrolidin-1-yl]-7-methylquinazolin-4-yl}amino)methyl]phenyl}benzamide] were, in that order, 3150 nM, more than 2500 nM and more than 10000 nM.
As for `C=Cc1ccc2nc(N(C)C)nc(NCc3ccc(NC(=O)c4ccc(Cl)nc4)cc3)c2c1` [Example 73, 6-chloro-N-[4-({[2-(dimethylamino)-6-vinylquinazolin-4-yl]amino}methyl)phenyl]nicotinamide], the 50% inhibitory concentration (IC50) in the experiment on β-catenin/Tcf-4 (setting [1]) is 194 nM; in the experiment with β-catenin/Tcf-4 (setting [2]), 223 nM; in the experiment with SV40-Luc (Homo sapiens, SV5A8, 24 h) it was more than 681 nM.
As to `O=C(Nc1ccc(CNc2nc(NC3CCCC3)nc3ccccc23)cc1)c1ccc(F)cc1` [Example 120, N-[4-({[2-(cyclopentylamino)quinazolin-4-yl]amino}methyl)phenyl]-4-fluorobenzamide], the IC50 is 795 nM in the experiment on β-catenin/Tcf-4 (setting [1]); 850 nM in the experiment with β-catenin/Tcf-4 (setting [2]); more than 1370 nM in the experiment on SV40-Luc (Homo sapiens, SV5A8, 24 h).
Turning to `Cc1ccc2c(NCc3ccc(NC(=O)C4CCN(Cc5ccccc5)CC4)cc3)nc(N3CCNC(CCO)C3)nc2c1` (stereo not drawn) [Example 138, 1-benzyl-N-{4-[({2-[3-(2-hydroxyethyl)piperazin-1-yl]-7-methylquinazolin-4-yl}amino)methyl]phenyl}piperidine-4-carboxamide], the IC50 with β-catenin/Tcf-4 (setting [1]) was 2120 nM; in the experiment on β-catenin/Tcf-4 (setting [2]), 2280 nM; with SV40-Luc (Homo sapiens, SV5A8, 24 h), more than 8420 nM.
For the compound `Cc1ccc2c(NCc3ccc(NC(=O)C4CCN(Cc5cc(F)ccc5F)CC4)cc3)nc(N(C)C)nc2c1` [Example 262, 1-(2,5-difluorobenzyl)-N-[4-({[2-(dimethylamino)-7-methylquinazolin-4-yl]amino}methyl)phenyl]piperidine-4-carboxamide], the IC50 with β-catenin/Tcf-4 (setting [1]) was 184 nM; with β-catenin/Tcf-4 (setting [2]), 213 nM; with SV40-Luc (Homo sapiens, SV5A8, 24 h), more than 4590 nM.
The like results for `Cc1cc(C)c2nc(N3CCN(C)CC3)nc(NCc3ccc(NC(=O)c4ccc(F)cc4)cc3)c2c1` [Example 49, N-[4-({[6,8-dimethyl-2-(4-methylpiperazin-1-yl)quinazolin-4-yl]amino}methyl)phenyl]-4-fluorobenzamide] were, in that order, more than 2510 nM, more than 2510 nM and more than 10000 nM.
As for `CN(C)c1nc(NCc2ccc(NC(=O)c3ccc(F)cc3)cc2)c2ccccc2n1` [Example 113, N-[4-({[2-(dimethylamino)quinazolin-4-yl]amino}methyl)phenyl]-4-fluorobenzamide], the IC50 is 766 nM in the experiment with β-catenin/Tcf-4 (setting [1]); 1490 nM with β-catenin/Tcf-4 (setting [2]); more than 3010 nM with SV40-Luc (Homo sapiens, SV5A8, 24 h).
For `CC(C)c1ccc2c(NCc3ccc(NC(=O)c4ccc(Cl)nc4)cc3)nc(N(C)C)nc2c1` [Example 62, 6-chloro-N-[4-({[2-(dimethylamino)-7-isopropylquinazolin-4-yl]amino}methyl)phenyl]nicotinamide], the IC50 in the experiment with β-catenin/Tcf-4 (setting [1]) is 808 nM; in the experiment on β-catenin/Tcf-4 (setting [2]), 1110 nM; with SV40-Luc (Homo sapiens, SV5A8, 24 h) it was more than 9780 nM.
`C/C=C\c1ccc2c(NCc3ccc(NC(=O)c4ccc(F)cc4)cc3)nc(N(C)C)nc2c1` [Example 97, N-{4-[({2-(dimethylamino)-7-[(1Z)-prop-1-en-1-yl]quinazolin-4-yl}amino)methyl]phenyl}-4-fluorobenzamide]: the IC50 in the experiment with β-catenin/Tcf-4 (setting [1]) is 599 nM; in the experiment on β-catenin/Tcf-4 (setting [2]), 499 nM; in the experiment on SV40-Luc (Homo sapiens, SV5A8, 24 h) it was more than 2560 nM.
Consider `O=C(Nc1ccc(CNc2nc(N3CCCC3)nc3ccc(C(F)(F)F)cc23)cc1)C1CCN(Cc2ccc(F)cc2)CC1` [Example 156, 1-(4-fluorobenzyl)-N-[4-({[2-pyrrolidin-1-yl-6-(trifluoromethyl)quinazolin-4-yl]amino}methyl)phenyl]piperidine-4-carboxamide], for which the IC50 was 3690 nM in the experiment with β-catenin/Tcf-4 (setting [1]); more than 4120 nM in the experiment with β-catenin/Tcf-4 (setting [2]); more than 8240 nM in the experiment on SV40-Luc (Homo sapiens, SV5A8, 24 h).
As for `CN(C)c1ccc(-c2ccc3nc(N(C)C)nc(NCc4ccc(NC(=O)c5ccc(F)cc5)cc4)c3c2)nc1` [Example 169], the 50% inhibitory concentration (IC50) was 229 nM in the experiment with β-catenin/Tcf-4 (setting [3]), 453 nM with β-catenin/Tcf-4 (setting [4]) and more than 2330 nM in the experiment on SV40-Luc.
Take `CN(C)c1nc(NCc2ccc(NC(=O)c3ccc(F)cc3)cc2)c2ccc(CN)cc2n1` [Example 90, N-[4-({[7-(aminomethyl)-2-(dimethylamino)quinazolin-4-yl]amino}methyl)phenyl]-4-fluorobenzamide]: the 50% inhibitory concentration (IC50) in the experiment with β-catenin/Tcf-4 (setting [1]) was 1300 nM; in the experiment with β-catenin/Tcf-4 (setting [2]), 2860 nM; in the experiment on SV40-Luc (Homo sapiens, SV5A8, 24 h), more than 4830 nM.
Regarding `CCN(C)c1nc(NCc2ccc(NC(=O)c3ccc(F)cc3)cc2)c2ccc(C)cc2n1` [Example 210, N-{4-[({2-[ethyl(methyl)amino]-7-methylquinazolin-4-yl}amino)methyl]phenyl}-4-fluorobenzamide], the half-maximal inhibitory concentration (IC50) was 825 nM with β-catenin/Tcf-4 (setting [1]); 1380 nM with β-catenin/Tcf-4 (setting [2]); more than 5640 nM with SV40-Luc (Homo sapiens, SV5A8, 24 h).
In the case of `Cc1ccc2nc(N3CC=CC3)nc(NCc3ccc(NC(=O)C4CCN(Cc5ccccc5)CC4)cc3)c2c1` [Example 80, 1-benzyl-N-[4-({[2-(2,5-dihydro-1H-pyrrol-1-yl)-6-methylquinazolin-4-yl]amino}methyl)phenyl]piperidine-4-carboxamide], the 50% inhibitory concentration (IC50) was 597 nM in the experiment on β-catenin/Tcf-4 (setting [1]); 761 nM with β-catenin/Tcf-4 (setting [2]); more than 9390 nM in the experiment on SV40-Luc (Homo sapiens, SV5A8, 24 h).
For `Cc1ccc2nc(N(C)C)nc(NCc3ccc(NC(=O)c4ccc(F)cc4)cc3)c2c1` [Example 39, N-[4-({[2-(dimethylamino)-6-methylquinazolin-4-yl]amino}methyl)phenyl]-4-fluorobenzamide], the concentration for half-maximal inhibition (IC50) is 428 nM with β-catenin/Tcf-4 (setting [3]), 217 nM in the experiment on β-catenin/Tcf-4 (setting [4]) and more than 5820 nM in the experiment with SV40-Luc.
As to `Cc1ccc2nc(N(C)C)nc(NCc3ccc(NC(=O)Nc4ccc(Cl)cc4)cc3)c2c1` [Example 178, N-(4-chlorophenyl)-N′-[4-({[2-(dimethylamino)-6-methylquinazolin-4-yl]amino}methyl)phenyl]urea], the concentration for half-maximal inhibition (IC50) in the experiment with β-catenin/Tcf-4 (setting [1]) was 245 nM; with β-catenin/Tcf-4 (setting [2]), 266 nM; in the experiment on SV40-Luc (Homo sapiens, SV5A8, 24 h), more than 2710 nM.
Regarding `Cc1ccc2nc(N3CCNCC3)nc(NCc3ccc(NC(=O)c4ccc(F)cc4)cc3)c2c1` [Example 45], the half-maximal inhibitory concentration (IC50) with β-catenin/Tcf-4 (setting [3]) was 1800 nM; with β-catenin/Tcf-4 (setting [4]), 1480 nM; with SV40-Luc, more than 10600 nM.
For `Cc1ccc2nc(N3CCN(C)CC3)nc(NCc3ccc(NC(=O)c4ccc(F)cc4)cc3)c2c1` [Example 46, 4-fluoro-N-((6-methyl-2-(4-methylpiperazin-1-yl)quinazolin-4-ylamino)methyl-phenyl)benzamide], the IC50 in the experiment on β-catenin/Tcf-4 (setting [3]), in the experiment on β-catenin/Tcf-4 (setting [4]) and in the experiment with SV40-Luc was more than 20800 nM each time.
`Cc1ccc2c(NCc3ccc(NC(=O)C4CCN(Cc5ccco5)CC4)cc3)nc(N(C)C)nc2c1` [Example 246, N-[4-({[2-(dimethylamino)-7-methylquinazolin-4-yl]amino}methyl)phenyl]-1-(2-furylmethyl)piperidine-4-carboxamide]: the IC50 with β-catenin/Tcf-4 (setting [1]) was 1930 nM; with β-catenin/Tcf-4 (setting [2]) it was 1830 nM; with SV40-Luc (Homo sapiens, SV5A8, 24 h), more than 20100 nM.
For the compound `Cc1ccc2c(NCc3ccc(NC(=O)c4ccc(F)cc4)cc3)nc(NCCN3CCCC3)nc2c1` [Example 237, 4-fluoro-N-{4-[({7-methyl-2-[(2-pyrrolidin-1-ylethyl)amino]quinazolin-4-yl}amino)methyl]phenyl}benzamide], the half-maximal inhibitory concentration (IC50) is 829 nM in the experiment with β-catenin/Tcf-4 (setting [1]); 888 nM with β-catenin/Tcf-4 (setting [2]); more than 5010 nM in the experiment with SV40-Luc (Homo sapiens, SV5A8, 24 h).
As to `Cc1ccc2c(NCc3ccc(NC(=O)C4CCN(Cc5ccncc5)CC4)cc3)nc(N(C)C)nc2c1` [Example 257, N-[4-({[2-(dimethylamino)-7-methylquinazolin-4-yl]amino}methyl)phenyl]-1-(pyridin-4-ylmethyl)piperidine-4-carboxamide], the half-inhibitory concentration (IC50) is 906 nM in the experiment with β-catenin/Tcf-4 (setting [1]); 1190 nM in the experiment on β-catenin/Tcf-4 (setting [2]); more than 8080 nM in the experiment with SV40-Luc (Homo sapiens, SV5A8, 24 h).
In the case of `C=Cc1ccc2c(NCc3ccc(NC(=O)c4ccc(Cl)nc4)cc3)nc(N(C)C)nc2c1` [Example 111, 6-chloro-N-[4-({[2-(dimethylamino)-7-vinylquinazolin-4-yl]amino}methyl)phenyl]nicotinamide], the concentration for half-maximal inhibition (IC50) in the experiment with β-catenin/Tcf-4 (setting [1]) was 181 nM; with β-catenin/Tcf-4 (setting [2]), 238 nM; with SV40-Luc (Homo sapiens, SV5A8, 24 h) it was more than 2520 nM.
